Results as given in patent US9562899B2, “Method of detecting OXA-048 carbapenemase producing bacteria” (BIOMÉRIEUX, priority 2012, dated 2017).

Legend:
Assay in all cases: Temocillin MIC with EDTA in the medium (Example 2)
Assay type in all cases: cell-based, Enterobacteriaceae
Details in all cases: Ex 2, MIC in mg/l
[1] = test system: AmpC strains
Source text: (§1) Optimization of the Detection Specificity by Introducing Specific Inhibitors Inhibition of Class B Strains (NDM, VIM, IMP) by Adding EDTA
(§2) Identical to that used to determine the temocillin MICs by agar dilution (example 1).
(§3) For each temocillin concentration, the following concentrations of active EDTA will be tested in the form of disodium EDTA: 0, 1.77, 2.12, 2.47 and 2.83 mmol/l.
(§4) Method: identical to the method used in example 1.

[2] = test system: BLSE strains
Source text: as §1, §2, §3, §4

[3] = test system: IMP strains
Source text: as §1, §2, §3, §4

## CO[C@@]1(NC(=O)C(C(=O)O)c2ccsc2)C(=O)N2[C@@H](C(=O)O)C(C)(C)S[C@@H]21 (stereo partly shown) [temocillin]
[1]; 2.12 mmol/l of active EDTA
  No. of AmpC strains with MIC 200: 0
  No. of AmpC strains with MIC 300: 0
  No. of AmpC strains with MIC >300: 0
  No. of AmpC strains with MIC ≦50: 9
[1]; 2.47 mmol/l of active EDTA
  No. of AmpC strains with MIC 150: 0
  No. of AmpC strains with MIC 200: 0
  No. of AmpC strains with MIC 300: 0
  No. of AmpC strains with MIC >300: 0
  No. of AmpC strains with MIC ≦50: 10
[1]; 2.83 mmol/l of active EDTA
  No. of AmpC strains with MIC 150: 0
  No. of AmpC strains with MIC 200: 0
  No. of AmpC strains with MIC 300: 0
  No. of AmpC strains with MIC >300: 0
  No. of AmpC strains with MIC ≦50: 10
[2]; 0 mmol/l of EDTA
  No. of BLSE strains with MIC 150: 0
  No. of BLSE strains with MIC 200: 0
  No. of BLSE strains with MIC 300: 0
  No. of BLSE strains with MIC >300: 0
  No. of BLSE strains with MIC ≦50: 10
[2]; 1.77 mmol/l of active EDTA
  No. of BLSE strains with MIC 150: 0
  No. of BLSE strains with MIC 200: 0
  No. of BLSE strains with MIC 300: 0
  No. of BLSE strains with MIC >300: 0
  No. of BLSE strains with MIC ≦50: 10
[2]; 2.12 mmol/l of active EDTA
  No. of BLSE strains with MIC 150: 1
  No. of BLSE strains with MIC 200: 0
  No. of BLSE strains with MIC 300: 0
  No. of BLSE strains with MIC >300: 0
  No. of BLSE strains with MIC ≦50: 9
[2]; 2.47 mmol/l of active EDTA
  No. of BLSE strains with MIC 150: 0
  No. of BLSE strains with MIC 200: 0
  No. of BLSE strains with MIC 300: 0
  No. of BLSE strains with MIC >300: 0
  No. of BLSE strains with MIC ≦50: 10
[2]; 2.83 mmol/l of active EDTA
  No. of BLSE strains with MIC 150: 0
  No. of BLSE strains with MIC 200: 0
  No. of BLSE strains with MIC 300: 0
  No. of BLSE strains with MIC >300: 0
  No. of BLSE strains with MIC ≦50: 10
[3]; 0 mmol/l of EDTA
  No. of IMP strains with MIC 150: 0
  No. of IMP strains with MIC 200: 0
  No. of IMP strains with MIC 300: 0
  No. of IMP strains with MIC >300: 1
  No. of IMP strains with MIC ≦50: 12
[3]; 1.77 mmol/l of active EDTA
  No. of IMP strains with MIC 150: 0
  No. of IMP strains with MIC 200: 0
  No. of IMP strains with MIC 300: 0
  No. of IMP strains with MIC >300: 1
  No. of IMP strains with MIC ≦50: 12
[3]; 2.12 mmol/l of active EDTA
  No. of IMP strains with MIC 150: 0
  No. of IMP strains with MIC 200: 0
  No. of IMP strains with MIC 300: 0
  No. of IMP strains with MIC >300: 1
  No. of IMP strains with MIC ≦50: 12
[3]; 2.47 mmol/l of active EDTA
  No. of IMP strains with MIC 150: 0
  No. of IMP strains with MIC 200: 0
  No. of IMP strains with MIC 300: 0
  No. of IMP strains with MIC >300: 1
  No. of IMP strains with MIC ≦50: 12
[3]; 2.83 mmol/l of active EDTA
  No. of IMP strains with MIC 150: 0
  No. of IMP strains with MIC 200: 0
  No. of IMP strains with MIC 300: 0
  No. of IMP strains with MIC >300: 1
  No. of IMP strains with MIC ≦50: 12
